Converted amounts (≈) assume the structure as drawn. “And” between values parts separate entries of the source, which are not always exact repeats. Identical values can stand only once.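 Interpolation was linear, between the two tested concentrations surrounding the appropriate level; five concentrations were tested over 48 hours in 96-well plates. The concentration for 50% growth inhibition is given as GI50. TGI marks complete inhibition of growth.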

For 13 compounds, TGI and GI50 results are on record in PubChem BioAssay (NCI).

Test systems include CAKI-1 renal; NCI-H23 lung; SNB-19 CNS; UACC-62 melanoma; RPMI-8226 leukemia; CCRF-CEM leukemia; HCC-2998 colon; HCT-116 colon; UO-31 renal.
Test in all cases: NCI tumour cell line growth inhibition, 48 h

With `N#Cc1sc2nc3c(c(-c4ccccc4)c2c1N)CCCC3`, the TGI with CAKI-1 renal, in the assay on NCI-H23 lung, with SNB-19 CNS, in the assay on UACC-62 melanoma, in the assay on RPMI-8226 leukemia and with CCRF-CEM leukemia was over 100 µM each time. For the same compound, the TGI with HCC-2998 colon, with HCT-116 colon and in the assay with UO-31 renal was over 100 µM throughout.

As for `CN(C(=O)C12C3C4C1C1C2C3C41C#N)C(C)(C)C` (stereo not drawn), the TGI with CAKI-1 renal, with NCI-H23 lung, in the assay with SNB-19 CNS, with UACC-62 melanoma, in the assay with RPMI-8226 leukemia and with CCRF-CEM leukemia was over 100 µM throughout. Also, the TGI in the assay on HCC-2998 colon, in the assay with HCT-116 colon and in the assay with UO-31 renal was over 100 µM each time.

Turning to `C(=C\c1ccc2ccccc2c1Nc1ccccc1)/c1ccccc1`, the TGI was over 83.8 µM in the assay on CAKI-1 renal; over 87.6 µM in the assay with NCI-H23 lung; over 90.5 µM with SNB-19 CNS; over 100 µM in the assay with UACC-62 melanoma; over 72.5 µM with RPMI-8226 leukemia; 30.5 µM in the assay with CCRF-CEM leukemia. Also, the TGI in the assay on HCC-2998 colon is over 100 µM; with HCT-116 colon, 46.4 µM; in the assay on UO-31 renal, over 72.2 µM.

Regarding `CN(C)NC(=O)NC12CC3CC(CC(C3)C1)C2`, the TGI with CAKI-1 renal, in the assay on NCI-H23 lung, in the assay on SNB-19 CNS, in the assay with UACC-62 melanoma, in the assay on RPMI-8226 leukemia and with CCRF-CEM leukemia was over 100 µM throughout. For the same compound, the TGI in the assay with HCT-116 colon and with UO-31 renal was over 100 µM each time.

As to `Nc1ncc(CN2CCCC2)c(-c2ccccc2O)n1`, the TGI in the assay with CAKI-1 renal, in the assay on NCI-H23 lung, in the assay on SNB-19 CNS, with UACC-62 melanoma, in the assay with RPMI-8226 leukemia and in the assay with HCC-2998 colon was over 750 µM each time. Besides, the TGI in the assay on HCT-116 colon and in the assay on UO-31 renal was over 750 µM each time. In the assay with CCRF-CEM leukemia, the GI50 was over 750 µM.

For the compound `O=C1c2c(c3c4ccccc4n(CC4CO4)c3c3[nH]c4ccccc4c23)C(=O)N1Cc1ccccc1` (stereo not drawn), the TGI with CAKI-1 renal, in the assay with NCI-H23 lung, in the assay with SNB-19 CNS, in the assay on UACC-62 melanoma, with RPMI-8226 leukemia and in the assay on CCRF-CEM leukemia was over 100 µM in each case. Moreover, the TGI in the assay with HCC-2998 colon, in the assay with HCT-116 colon and in the assay with UO-31 renal was over 100 µM each time.

As to `O=C1N(c2ccc(Cl)cc2)C(=O)C2(SC=NN2Cc2ccccc2)N1c1ccc(Cl)cc1` (stereo not drawn), the TGI in the assay with NCI-H23 lung, in the assay with SNB-19 CNS, in the assay with UACC-62 melanoma, in the assay on RPMI-8226 leukemia, in the assay on CCRF-CEM leukemia and in the assay on HCC-2998 colon was over 100 µM each time. Also, the TGI with HCT-116 colon and in the assay with UO-31 renal was over 100 µM each time.

As for `COc1cc2c(cc1O)CCN[C@@]21CS[C@H]2c3c(OC(C)=O)c(C)c4c(c3C(COC1=O)N1C2C2NC(Cc3cc(C)c(OC)c(O)c32)[C@@H]1O)OCO4` (stereo partly drawn), the GI50 in the assay on CAKI-1 renal was 0.000294 ng/mL; with NCI-H23 lung, 4.5 ng/mL (≈ 6.02 nM); in the assay on UACC-62 melanoma, 4.5 ng/mL; with CCRF-CEM leukemia, 4.5 ng/mL; in the assay on HCT-116 colon, 4.5 ng/mL (≈ 6.02 nM); in the assay on UO-31 renal, 10.8 ng/mL. In addition, the TGI is 3.03 µM in the assay with CAKI-1 renal; 298 nM and 1.3e-07 µg/mL and 0.0045 µg/mL with NCI-H23 lung; 11.4 µM with SNB-19 CNS; 4.5 ng/mL with UACC-62 melanoma; > 100 µM and 6.4e-07 µg/mL in the assay with RPMI-8226 leukemia; > 100 µM and 0.000154 µg/mL and 0.0045 µg/mL with CCRF-CEM leukemia. In addition, the TGI in the assay with HCT-116 colon was 11.9 µM and 4.86 µg/mL; in the assay on UO-31 renal, 21.3 nM and 0.255 µg/mL.

On to `COc1cccc(NC(=O)/C(CS(=O)(=O)CCC(C(C)=O)C(C)=O)=N\NC(C)(C)C)c1`, for which the TGI in the assay on CAKI-1 renal, in the assay with NCI-H23 lung, in the assay with SNB-19 CNS, in the assay on UACC-62 melanoma, in the assay with RPMI-8226 leukemia and in the assay on CCRF-CEM leukemia was over 100 µM each time. The TGI with HCC-2998 colon, in the assay on HCT-116 colon and in the assay on UO-31 renal was over 100 µM in each case.

For `CCn1c(=O)nc2n(-c3ccc(SC)cc3)c3ccccc3nc-2c1=O`, the TGI with CAKI-1 renal, in the assay with NCI-H23 lung, in the assay on SNB-19 CNS, in the assay with UACC-62 melanoma, in the assay with RPMI-8226 leukemia and in the assay on CCRF-CEM leukemia was over 100 µM in each case. The TGI with HCC-2998 colon and in the assay with UO-31 renal was over 100 µM each time.

With `Cc1ccc2nc(CN(CCN(Cc3nc4ccc(C)cc4[nH]3)Cc3nc4ccc(C)cc4[nH]3)Cc3nc4ccc(C)cc4[nH]3)[nH]c2c1`, the GI50 in the assay with CAKI-1 renal was 1.26 µM; with SNB-19 CNS, 1.7 µM; with UACC-62 melanoma, 1.72 µM; with RPMI-8226 leukemia, 1.3 µM; in the assay on HCC-2998 colon, 1.74 µM; in the assay on UO-31 renal, 1.71 µM. Also, the TGI in the assay with CAKI-1 renal was 2.51 µM; with SNB-19 CNS, 3.07 µM; with UACC-62 melanoma it was 3.1 µM; in the assay with RPMI-8226 leukemia, 2.95 µM; with HCC-2998 colon it was 3.18 µM; in the assay on UO-31 renal it was 3.14 µM.

Turning to `C=C(C)[C@@H]1CC[C@]2(C(=O)O)CC[C@]3(C)[C@H](CC[C@@H]4[C@@]5(C)CCC(N)C(C)(C)[C@@H]5CC[C@]43C)[C@@H]12` (stereo partly drawn), the GI50 in the assay on UACC-62 melanoma is 1.92 µM; with RPMI-8226 leukemia, 2.04 µM; in the assay on CCRF-CEM leukemia it was 2.11 µM. Further, the TGI with UACC-62 melanoma came to 3.55 µM; with RPMI-8226 leukemia, 5.21 µM; with CCRF-CEM leukemia, 5.53 µM.

In the case of `CCOC(=O)C(=O)CC(=O)C(Br)C(Br)c1ccc(Cl)cc1` (stereo not drawn), the TGI with CAKI-1 renal is over 100 µM; with NCI-H23 lung, 96.1 µM; in the assay on SNB-19 CNS, 64.6 µM; with UACC-62 melanoma, over 100 µM; with RPMI-8226 leukemia, 51.8 µM; in the assay with CCRF-CEM leukemia it was 29.3 µM. In addition, the TGI in the assay on HCC-2998 colon and in the assay on UO-31 renal was over 100 µM in each case.
